According to ChEMBL document CHEMBL5316337, “Critical Role of Position 10 Residue in the Polymyxin Antimicrobial Activity” (J Med Chem, 2023):
≈ marks a conversion by molar mass, not a printed value.

Key:
Pseudomonas aeruginosa [1] = assay: Antibacterial activity against polymyxin-susceptible Pseudomonas aeruginosa ATCC 27853 clinical isolates assessed as reduction in bacterial growth by broth microdilution method; type: functional
Pseudomonas aeruginosa [2] = assay: Antibacterial activity against Carbapenem-resistant Pseudomonas aeruginosa FADD1-PA022 clinical isolates assessed as reduction in bacterial growth by broth microdilution method; type: functional
Pseudomonas aeruginosa [3] = assay: Antibacterial activity against Carbapenem-resistant Pseudomonas aeruginosa FADD1-PA001 clinical isolates assessed as reduction in bacterial growth by broth microdilution method; type: functional
Pseudomonas aeruginosa [4] = assay: Antibacterial activity against polymyxin-susceptible Pseudomonas aeruginosa FADD1-PA038 clinical isolates assessed as reduction in bacterial growth by broth microdilution method; type: functional
Pseudomonas aeruginosa [5] = assay: Antibacterial activity against polymyxin-susceptible Pseudomonas aeruginosa FADD1-PA025 clinical isolates assessed as reduction in bacterial growth by broth microdilution method; type: functional
Acinetobacter baumannii [6] = assay: Antibacterial activity against polymyxin-susceptible Acinetobacter baumannii ATCC 19606 clinical isolates assessed as reduction in bacterial growth by broth microdilution method; type: functional
Acinetobacter baumannii [7] = assay: Antibacterial activity against Carbapenem-resistant Acinetobacter baumannii FADD1-AB034 clinical isolates assessed as reduction in bacterial growth by broth microdilution method; type: functional
Acinetobacter baumannii [8] = assay: Antibacterial activity against polymyxin-susceptible Acinetobacter baumannii ATCC 17978 clinical isolates assessed as reduction in bacterial growth by broth microdilution method; type: functional
Acinetobacter baumannii [9] = assay: Antibacterial activity against Carbapenem-resistant Acinetobacter baumannii FADD1-AB030 clinical isolates assessed as reduction in bacterial growth by broth microdilution method; type: functional
Klebsiella pneumoniae [10] = assay: Antibacterial activity against Carbapenem-resistant Klebsiella pneumoniae FADD1-KP032 clinical isolates assessed as reduction in bacterial growth by broth microdilution method; type: functional
Klebsiella pneumoniae [11] = assay: Antibacterial activity against Carbapenem-resistant Klebsiella pneumoniae FADD1-KP022 clinical isolates assessed as reduction in bacterial growth by broth microdilution method; type: functional
Klebsiella pneumoniae [12] = assay: Antibacterial activity against Carbapenem-resistant Klebsiella pneumoniae BM1 clinical isolates assessed as reduction in bacterial growth by broth microdilution method; type: functional
Klebsiella pneumoniae [13] = assay: Antibacterial activity against polymyxin-susceptible Klebsiella pneumoniae ATCC 700721 clinical isolates assessed as reduction in bacterial growth by broth microdilution method; type: functional
Klebsiella pneumoniae [14] = assay: Antibacterial activity against Carbapenem-resistant Klebsiella pneumoniae FADD1-KP065 clinical isolates assessed as reduction in bacterial growth by broth microdilution method; type: functional
Enterobacter cloacae [15] = assay: Antibacterial activity against polymyxin-susceptible Enterobacter cloacae FADD1-EC006 clinical isolates assessed as reduction in bacterial growth by broth microdilution method; type: functional
Enterobacter cloacae [16] = assay: Antibacterial activity against polymyxin-susceptible Enterobacter cloacae FADD1-EC001 clinical isolates assessed as reduction in bacterial growth by broth microdilution method; type: functional
Enterobacter cloacae [17] = assay: Antibacterial activity against polymyxin-susceptible Enterobacter cloacae FADD1-EC003 clinical isolates assessed as reduction in bacterial growth by broth microdilution method; type: functional
[18] = Acute toxicity in Swiss mouse assessed as maximum tolerated dose administered intravenously measured over 24 hrs; conditions: in vivo, route iv

Row | SMILES | MIC (Pseudomonas aeruginosa [1]) [µg/mL] | MIC (Pseudomonas aeruginosa [2]) [µg/mL] | MIC (Pseudomonas aeruginosa [3]) [µg/mL] | MIC (Pseudomonas aeruginosa [4]) [µg/mL] | MIC (Pseudomonas aeruginosa [5]) [µg/mL] | MIC (Acinetobacter baumannii [6]) [µg/mL] | MIC (Acinetobacter baumannii [7]) [µg/mL] | MIC (Acinetobacter baumannii [8]) [µg/mL] | MIC (Acinetobacter baumannii [9]) [µg/mL] | MIC (Klebsiella pneumoniae [10]) [µg/mL] | MIC (Klebsiella pneumoniae [11]) [µg/mL] | MIC (Klebsiella pneumoniae [12]) [µg/mL] | MIC (Klebsiella pneumoniae [13]) [µg/mL] | MIC (Klebsiella pneumoniae [14]) [µg/mL] | MIC (Enterobacter cloacae [15]) [µg/mL] | MIC (Enterobacter cloacae [16]) [µg/mL] | MIC (Enterobacter cloacae [17]) [µg/mL] | MTD at 24 h [18] [mg/kg]
1 | CC[C@H](C)CCCCC(=O)N[C@@H](CCN)C(=O)N[C@H](C(=O)N[C@@H](CCN)C(=O)N[C@H]1CCNC(=O)[C@H]([C@@H](C)O)NC(=O)[C@H](CCN)NC(=O)[C@H](CCN)NC(=O)[C@H](CC(C)C)NC(=O)[C@@H](Cc2ccccc2)NC(=O)[C@H](CCN)NC1=O)[C@@H](C)O | 1 (≈ 0.831 µM) | 2 (≈ 1.66 µM) | 2 (≈ 1.66 µM) | 4 (≈ 3.32 µM) | 4 (≈ 3.32 µM) | 1 (≈ 0.831 µM) | 1 (≈ 0.831 µM) | 1 (≈ 0.831 µM) | 1 (≈ 0.831 µM) | 0.25 (≈ 0.208 µM) | 0.25 (≈ 0.208 µM) | 0.5 (≈ 0.415 µM) | 1 (≈ 0.831 µM) | 0.5 (≈ 0.415 µM) | 0.5 (≈ 0.415 µM) | 0.5 (≈ 0.415 µM) | 0.5 (≈ 0.415 µM) | 4
2 | CC[C@H](C)CCCCC(=O)N[C@@H](CCN)C(=O)N[C@H](C(=O)N[C@@H](CCN)C(=O)N[C@H]1CCNC(=O)[C@@H]([C@H](C)O)NC(=O)[C@H](CCN)NC(=O)[C@H](CCN)NC(=O)[C@H](CC(C)C)NC(=O)[C@@H](Cc2ccccc2)NC(=O)[C@H](CCN)NC1=O)[C@@H](C)O | 32 (≈ 26.6 µM) | 2 (≈ 1.66 µM) | > 32 | > 32 | 16 (≈ 13.3 µM) | > 32 | > 32 | 4 (≈ 3.32 µM) | > 32 | > 32 | > 32 | > 32 | > 32 | > 32 | > 32 | > 32 | > 32 | 
3 | CC[C@H](C)CCCCC(=O)N[C@@H](CCN)C(=O)N[C@H](C(=O)N[C@@H](CCN)C(=O)N[C@H]1CCNC(=O)[C@H](CC(=O)O)NC(=O)[C@H](CCN)NC(=O)[C@H](CCN)NC(=O)[C@H](CC(C)C)NC(=O)[C@@H](Cc2ccccc2)NC(=O)[C@H](CCN)NC1=O)[C@@H](C)O | > 32 | 8 (≈ 6.57 µM) | > 32 | > 32 | > 32 | > 32 | > 32 | > 32 | > 32 | 32 (≈ 26.3 µM) | 16 (≈ 13.1 µM) | 32 (≈ 26.3 µM) | > 32 | 16 (≈ 13.1 µM) | > 32 | > 32 | > 32 | 
4 | CC[C@H](C)CCCCC(=O)N[C@@H](CCN)C(=O)N[C@H](C(=O)N[C@@H](CCN)C(=O)N[C@H]1CCNC(=O)[C@H](C(C)C)NC(=O)[C@H](CCN)NC(=O)[C@H](CCN)NC(=O)[C@H](CC(C)C)NC(=O)[C@@H](Cc2ccccc2)NC(=O)[C@H](CCN)NC1=O)[C@@H](C)O | 1 (≈ 0.832 µM) | 1 (≈ 0.832 µM) | 1 (≈ 0.832 µM) | 2 (≈ 1.66 µM) | 1 (≈ 0.832 µM) | 4 (≈ 3.33 µM) | 4 (≈ 3.33 µM) | 4 (≈ 3.33 µM) | 2 (≈ 1.66 µM) | 1 (≈ 0.832 µM) | 0.25 (≈ 0.208 µM) | 1 (≈ 0.832 µM) | 8 (≈ 6.66 µM) | 1 (≈ 0.832 µM) | 16 (≈ 13.3 µM) | 4 (≈ 3.33 µM) | 2 (≈ 1.66 µM) | 
5 | CC[C@H](C)CCCCC(=O)N[C@@H](CCN)C(=O)N[C@H](C(=O)N[C@@H](CCN)C(=O)N[C@H]1CCNC(=O)[C@H](C(C)(C)O)NC(=O)[C@H](CCN)NC(=O)[C@H](CCN)NC(=O)[C@H](CC(C)C)NC(=O)[C@@H](Cc2ccccc2)NC(=O)[C@H](CCN)NC1=O)[C@@H](C)O | 1 (≈ 0.821 µM) | 1 (≈ 0.821 µM) | 2 (≈ 1.64 µM) | 8 (≈ 6.57 µM) | 2 (≈ 1.64 µM) | 8 (≈ 6.57 µM) | 8 (≈ 6.57 µM) | 8 (≈ 6.57 µM) | 8 (≈ 6.57 µM) | 2 (≈ 1.64 µM) | 1 (≈ 0.821 µM) | 1 (≈ 0.821 µM) | 4 (≈ 3.29 µM) | 1 (≈ 0.821 µM) | 16 (≈ 13.1 µM) | 16 (≈ 13.1 µM) | 4 (≈ 3.29 µM) | 
6 | CC[C@H](C)CCCCC(=O)N[C@@H](CCN)C(=O)N[C@H](C(=O)N[C@@H](CCN)C(=O)N[C@H]1CCNC(=O)[C@H](Cc2ccc(O)cc2)NC(=O)[C@H](CCN)NC(=O)[C@H](CCN)NC(=O)[C@H](CC(C)C)NC(=O)[C@@H](Cc2ccccc2)NC(=O)[C@H](CCN)NC1=O)[C@@H](C)O | 2 (≈ 1.58 µM) | 1 (≈ 0.79 µM) | 4 (≈ 3.16 µM) | 8 (≈ 6.32 µM) | 2 (≈ 1.58 µM) | 2 (≈ 1.58 µM) | 2 (≈ 1.58 µM) | 2 (≈ 1.58 µM) | 4 (≈ 3.16 µM) | 4 (≈ 3.16 µM) | 0.5 (≈ 0.395 µM) | 1 (≈ 0.79 µM) | 8 (≈ 6.32 µM) | 4 (≈ 3.16 µM) | 16 (≈ 12.6 µM) | 16 (≈ 12.6 µM) | 8 (≈ 6.32 µM) | 
7 | CC[C@H](C)CCCCC(=O)N[C@@H](CCN)C(=O)N[C@H](C(=O)N[C@@H](CCN)C(=O)N[C@H]1CCNC(=O)CNC(=O)[C@H](CCN)NC(=O)[C@H](CCN)NC(=O)[C@H](CC(C)C)NC(=O)[C@@H](Cc2ccccc2)NC(=O)[C@H](CCN)NC1=O)[C@@H](C)O | 0.5 (≈ 0.431 µM) | 0.5 (≈ 0.431 µM) | 1 (≈ 0.862 µM) | 8 (≈ 6.9 µM) | 2 (≈ 1.72 µM) | > 32 | 32 (≈ 27.6 µM) | 4 (≈ 3.45 µM) | > 32 | 4 (≈ 3.45 µM) | 1 (≈ 0.862 µM) | > 32 | 8 (≈ 6.9 µM) | 0.5 (≈ 0.431 µM) | 4 (≈ 3.45 µM) | 4 (≈ 3.45 µM) | 4 (≈ 3.45 µM) | 
8 | CC[C@H](C)CCCCC(=O)N[C@@H](CCN)C(=O)N[C@H](C(=O)N[C@@H](CCN)C(=O)N[C@H]1CCNC(=O)[C@H]([C@@H](C)OC)NC(=O)[C@H](CCN)NC(=O)[C@H](CCN)NC(=O)[C@H](CC(C)C)NC(=O)[C@@H](Cc2ccccc2)NC(=O)[C@H](CCN)NC1=O)[C@@H](C)O | 1 (≈ 0.821 µM) | 1 (≈ 0.821 µM) | 8 (≈ 6.57 µM) | 16 (≈ 13.1 µM) | 2 (≈ 1.64 µM) | 16 (≈ 13.1 µM) | 4 (≈ 3.29 µM) | 8 (≈ 6.57 µM) | 8 (≈ 6.57 µM) | 2 (≈ 1.64 µM) | 1 (≈ 0.821 µM) | 8 (≈ 6.57 µM) | 8 (≈ 6.57 µM) | 8 (≈ 6.57 µM) | 32 (≈ 26.3 µM) | 8 (≈ 6.57 µM) | 4 (≈ 3.29 µM) | 
9 | CC[C@H](C)CCCCC(=O)N[C@@H](CCN)C(=O)N[C@H](C(=O)N[C@@H](CCN)C(=O)N[C@H]1CCNC(=O)[C@H](CS)NC(=O)[C@H](CCN)NC(=O)[C@H](CCN)NC(=O)[C@H](CC(C)C)NC(=O)[C@@H](Cc2ccccc2)NC(=O)[C@H](CCN)NC1=O)[C@@H](C)O | 4 (≈ 3.32 µM) | 4 (≈ 3.32 µM) | 8 (≈ 6.64 µM) | 8 (≈ 6.64 µM) | 8 (≈ 6.64 µM) | 16 (≈ 13.3 µM) | 16 (≈ 13.3 µM) | 16 (≈ 13.3 µM) | 32 (≈ 26.5 µM) | 16 (≈ 13.3 µM) | 4 (≈ 3.32 µM) | 16 (≈ 13.3 µM) | 16 (≈ 13.3 µM) | 4 (≈ 3.32 µM) | 16 (≈ 13.3 µM) | 16 (≈ 13.3 µM) | 16 (≈ 13.3 µM) | 
